Where two headings read alike, the source gives them in different places.
What was measured:
[1] = system: ZEAMX: corn (Zea mays); assay: Post-Emergent Test I herbicidal activity; type: in vivo; conditions: for GR20 ZEAMX: Table 4, growth reduction of 20% of plant growth; for GR20 ZEAMX / GR50 ZEAMX / GR80 ZEAMX: 14 days after application, probit analysis; for GR50 ZEAMX: Table 4, growth reduction of 50% of plant growth; for GR80 ZEAMX: Table 4, growth reduction of 80% of plant growth; for pest or weed control at 17.5 g/ha: Table 4, 17.5 g ai/ha; for pest or weed control at 35 g/ha: Table 4, 35 g ai/ha; for pest or weed control at 70 g/ha: Table 4, 70 g ai/ha
How it was run: (§1)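 Post-emergence foliar application to young greenhouse plants at 187 L/ha, five rates down to 1/16× of the top rate. Percent injury is assessed visually two weeks later against untreated plants.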

[2] = system: ORYSA: rice (Oryza sativa); assay: Post-Emergent Test I herbicidal activity; type: in vivo; conditions: post-emergence, 336 h, read-out: Visual Growth Reduction (%)-14 Days after Application ORYSA
How it was run: (§2)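 Visual injury ratings (0 = none, 100 = complete kill) taken 14 d after treatment, compared with untreated plants, feed probit-derived GR20/GR50/GR80. Application: overhead spray, 187 L/ha, highest rate and ½×-1/16× dilutions in acetone-DMSO-based aqueous spray mix with crop oil and surfactant, onto plants grown 7-21 d to first or second true leaf.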

[3] = system: CYPES: yellow nutsedge (Cyperus esculentus); assay: Post-Emergent Test I herbicidal activity; type: in vivo; conditions: post-emergence, 336 h, read-out: Visual Growth Reduction (%)-14 Days after Application CYPES
How it was run: as §1

[4] = system: EPHHL: wild poinsettia (Euphorbia heterophylla); assay: Post-Emergent Test I herbicidal activity; type: in vivo; conditions: post-emergence, 336 h, read-out: Visual Growth Reduction (%)-14 Days after Application EPHHL
How it was run: as §1

[5] = system: ABUTH: velvetleaf (Abutilon theophrasti); assay: Post-Emergent Test I herbicidal activity; type: in vivo; conditions: for pest or weed control at 17.5 g/ha: Table 4, 17.5 g ai/ha; for pest or weed control at 35 g/ha: Table 4, 35 g ai/ha; for pest or weed control at 70 g/ha: Table 4, 70 g ai/ha; for GR20 ABUTH: Table 4, growth reduction of 20% of plant growth; for GR20 ABUTH / GR50 ABUTH / GR80 ABUTH: 14 days after application, probit analysis; for GR50 ABUTH: Table 4, growth reduction of 50% of plant growth; for GR80 ABUTH: Table 4, growth reduction of 80% of plant growth
How it was run: as §1

[6] = system: ECHCG: barnyardgrass (Echinochloa crus-galli); assay: Post-Emergent Test I herbicidal activity; type: in vivo; conditions: post-emergence, 336 h, read-out: Visual Growth Reduction (%)-14 Days after Application ECHCG
How it was run: as §2

[7] = system: CHEAL: lambsquarters (Chenopodium album); assay: Post-Emergent Test I herbicidal activity; type: in vivo; conditions: for pest or weed control at 17.5 g/ha: Table 4, 17.5 g ai/ha; for pest or weed control at 35 g/ha: Table 4, 35 g ai/ha; for pest or weed control at 70 g/ha: Table 4, 70 g ai/ha; for GR20 CHEAL: Table 4, growth reduction of 20% of plant growth; for GR20 CHEAL / GR50 CHEAL / GR80 CHEAL: 14 days after application, probit analysis; for GR50 CHEAL: Table 4, growth reduction of 50% of plant growth; for GR80 CHEAL: Table 4, growth reduction of 80% of plant growth
How it was run: as §1

[8] = Zea mays, post-emergence, 336 h, read-out: Visual Growth Reduction (%)-14 Days after Application ZEAMX
[9] = Zea mays, post-emergence, 336 h, Table 4, 140 g ai/ha, read-out: Visual Growth Reduction (%)-14 Days after Application ZEAMX
[10] = Abutilon theophrasti, post-emergence, 336 h, read-out: Visual Growth Reduction (%)-14 Days after Application ABUTH
[11] = Abutilon theophrasti, post-emergence, 336 h, Table 4, 140 g ai/ha, read-out: Visual Growth Reduction (%)-14 Days after Application ABUTH
[12] = Chenopodium album, post-emergence, 336 h, read-out: Visual Growth Reduction (%)-14 Days after Application CHEAL

SMILES	GR20 ZEAMX [1]	GR50 ZEAMX [1]	GR80 ZEAMX [1]	pest or weed control at 17.5 g/ha [1, 8]	pest or weed control at 35 g/ha [1, 8]	pest or weed control at 70 g/ha [1, 8]	pest or weed control at 140 g/ha [1, 9]	pest or weed control at 17.5 g/ha [5, 10]	pest or weed control at 35 g/ha [5, 10]	pest or weed control at 70 g/ha [5, 10]	pest or weed control at 140 g/ha [5, 11]	GR20 ABUTH [5]	GR50 ABUTH [5]	GR80 ABUTH [5]	pest or weed control at 17.5 g/ha [7, 12]	pest or weed control at 35 g/ha [7, 12]	pest or weed control at 70 g/ha [7, 12]	GR20 CHEAL [7]	GR50 CHEAL [7]	GR80 CHEAL [7]	further results
COC(=O)c1nc(Cl)cc(N)c1OC [Compound 1, methyl 4-amino-6-chloro-3-methoxypicolinate]	>280 g ai/ha	>280 g ai/ha	>280 g ai/ha	0%	0%	0%	0%	40%	85%	95%	95%	10.5 g ai/ha	19.4 g ai/ha	35.9 g ai/ha	90%	90%	95%	<17.5 g ai/ha	<17.5 g ai/ha	<17.5 g ai/ha	pest or weed control at 280 g/ha ([1]; Zea mays, post-emergence, 336 h, Table 3, 280 g ai/ha, read-out: Visual Growth Reduction (%)-14 Days after Application ZEAMX): 0%; pest or weed control at 280 g/ha ([1]; Zea mays, post-emergence, 336 h, Table 4, 280 g ai/ha, read-out: Visual Growth Reduction (%)-14 Days after Application ZEAMX): 0%; pest or weed control at 280 g/ha ([2]; Table 3, 280 g ai/ha): 0%; pest or weed control at 280 g/ha ([3]; Table 3, 280 g ai/ha): 0%; pest or weed control at 280 g/ha ([4]; Table 3, 280 g ai/ha): 100%; pest or weed control at 280 g/ha ([5]; Abutilon theophrasti, post-emergence, 336 h, Table 3, 280 g ai/ha, read-out: Visual Growth Reduction (%)-14 Days after Application ABUTH): 100%; pest or weed control at 280 g/ha ([5]; Abutilon theophrasti, post-emergence, 336 h, Table 4, 280 g ai/ha, read-out: Visual Growth Reduction (%)-14 Days after Application ABUTH): 100%; pest or weed control at 280 g/ha ([6]; Table 3, 280 g ai/ha): 0%; pest or weed control at 280 g/ha ([7]; Chenopodium album, post-emergence, 336 h, Table 3, 280 g ai/ha, read-out: Visual Growth Reduction (%)-14 Days after Application CHEAL): 100%; pest or weed control at 140 g/ha ([7]; Chenopodium album, post-emergence, 336 h, Table 4, 140 g ai/ha, read-out: Visual Growth Reduction (%)-14 Days after Application CHEAL): 100%; Visual Growth Reduction (%)-14 Days after Application CHEAL ([7]; Table 4, 280 g ai/ha): 100%; melting point: 78 to 79 °C
COC(=O)c1nc(-c2ccc(Cl)cc2F)cc(N)c1OC [Compound 6, Methyl 4-amino-6-(4-chloro-2-fluorophenyl)-3-methoxypicolinate]	132 g ai/ha	>140 g ai/ha	>140 g ai/ha	0%	0%	10%	20%	75%	80%	85%	85%	<8.75 g ai/ha	6.42 g ai/ha	38.1 g ai/ha	100%	100%	100%	<8.75 g ai/ha	<8.75 g ai/ha	<8.75 g ai/ha	pest or weed control at 140 g/ha ([1]; Zea mays, post-emergence, 336 h, Table 3, 140 g ai/ha, read-out: Visual Growth Reduction (%)-14 Days after Application ZEAMX): 0%; pest or weed control at 8.75 g/ha ([1]; Zea mays, post-emergence, 336 h, Table 4, 8.75 g ai/ha, read-out: Visual Growth Reduction (%)-14 Days after Application ZEAMX): 0%; pest or weed control at 140 g/ha ([2]; Table 3, 140 g ai/ha): 5%; pest or weed control at 140 g/ha ([3]; Table 3, 140 g ai/ha): 20%; pest or weed control at 140 g/ha ([4]; Table 3, 140 g ai/ha): 100%; pest or weed control at 140 g/ha ([5]; Abutilon theophrasti, post-emergence, 336 h, Table 3, 140 g ai/ha, read-out: Visual Growth Reduction (%)-14 Days after Application ABUTH): 60%; pest or weed control at 8.75 g/ha ([5]; Abutilon theophrasti, post-emergence, 336 h, Table 4, 8.75 g ai/ha, read-out: Visual Growth Reduction (%)-14 Days after Application ABUTH): 50%; pest or weed control at 140 g/ha ([6]; Table 3, 140 g ai/ha): 0%; pest or weed control at 140 g/ha ([7]; Chenopodium album, post-emergence, 336 h, Table 3, 140 g ai/ha, read-out: Visual Growth Reduction (%)-14 Days after Application CHEAL): 100%; pest or weed control at 8.75 g/ha ([7]; Chenopodium album, post-emergence, 336 h, Table 4, 8.75 g ai/ha, read-out: Visual Growth Reduction (%)-14 Days after Application CHEAL): 90%; Visual Growth Reduction (%)-14 Days after Application CHEAL ([7]; Table 4, 140 g ai/ha): 100%; melting point: 139 to 144 °C

Source: patent US9518018B2, “3-alkoxy, thioalkyl and amino-4-amino-6-(substituted)picolinates and their use as herbicides” (Dow AgroSciences LLC, priority 2011, dated 2016)
